In general, melting point refers to the temperature, or range, at which the solid turns liquid.

The results in this text go back to patent US6638960B2, “Halogenobenzimidazoles and their use as microbicides” (Bayer Aktiengesellschaft, priority 1995, dated 2003).

One data set relates to Phytophthora infestans. The data set is described as follows: whole plant or invertebrate. The settings on record: in Solanum lycopersicum, 72 h, read-out: Efficacy in % based on the untreated control at an active compound concentration of 50 ppm. It is filed as in vivo.
In the next data set the test system is Plasmopara viticola. The data set is described as follows: Plasmopara test (vines)/protective. In kind it is in vivo. The following applies: 50 ppm active compound; vines sprayed protectively; evaluated 6 days after inoculation; 100% = no disease.

Regarding `Cc1onc(N)c1S(=O)(=O)n1c(Cl)nc2cc3c(cc21)OC(F)(F)C(F)(F)O3`, the pest or weed control at 50 ppm in the data set on Phytophthora infestans is 97%.

As for `FC1(F)Oc2cc3nc(Br)[nH]c3cc2OC1(F)F`, the melting point lay in the range of 170 to 174 °C.

Regarding `Cc1noc(C)c1S(=O)(=O)n1c(Br)nc2cc3c(cc21)OC(F)(F)C(F)(F)O3` [drawing 101], the pest or weed control at 50 ppm in the data set with Phytophthora infestans came out at 97%. In turn, `Cc1noc(C)c1S(=O)(=O)n1c(Br)nc2cc3c(cc21)OC(F)(F)O3` returned a melting point of 130 to 134 °C. `Clc1nc2cc3c(cc2[nH]1)OCCO3`: the melting point came to 150 °C. For the compound `Cc1onc(N)c1S(=O)(=O)n1c(Br)nc2cc3c(cc21)OC(F)(F)O3`, the pest or weed control at 50 ppm with Phytophthora infestans was determined as 95%. Regarding `Cc1noc(C)c1S(=O)(=O)n1c(Br)nc2cc3c(cc21)OC(F)(F)O3` [drawing 114], in the data set with Plasmopara viticola, the “Efficacy in % based on the untreated control at an active compound concentration of 50 ppm” value (from here on “Efficacy in % based”) was 99%. Take `Cc1noc(C)c1S(=O)(=O)n1c(Cl)nc2ccccc21`: in the data set with Phytophthora infestans, the pest or weed control at 50 ppm was determined as 99%.

Take `FC1(F)Oc2cc3nc[nH]c3cc2OC1(F)F`: the melting point lay in the range of 70 to 74 °C. As for `Cc1noc(C)c1S(=O)(=O)n1c(Cl)nc2ccc(Sc3ccccc3)cc21` [drawing 110], the pest or weed control at 50 ppm in the data set with Phytophthora infestans came to 99%. Turning to `COc1ccc2c(c1)nc(Cl)n2S(=O)(=O)c1c(C)noc1C`, the pest or weed control at 50 ppm in the data set on Phytophthora infestans was 96%. With `Cc1noc(C)c1S(=O)(=O)n1c(Cl)nc2ccc(Sc3ccccc3)cc21` [drawing 119], the “Efficacy in % based” value in the data set with Plasmopara viticola worked out at 100%. As to `CN(C)S(=O)(=O)n1c(Br)nc2cc3c(cc21)OC(F)(F)C(F)(F)O3`, the pest or weed control at 50 ppm with Phytophthora infestans stood at 86%. For the compound `Cc1noc(C)c1S(=O)(=O)n1c(Cl)nc2cc3c(cc21)OC(F)(F)O3` [drawing 109], the pest or weed control at 50 ppm with Phytophthora infestans came out at 99%.

`Cc1noc(C)c1S(=O)(=O)n1c(Cl)nc2cc3c(cc21)OC(F)(F)O3` [drawing 118]: in the data set with Plasmopara viticola, the “Efficacy in % based” value was 100%.

Take `Cc1noc(C)c1S(=O)(=O)n1c(Br)nc2cc3c(cc21)OC(F)(F)C(F)(F)O3` [drawing 115]: the “Efficacy in % based” value in the data set on Plasmopara viticola came to 93%. As for `Cc1noc(C)c1S(=O)(=O)n1c(Br)nc2cc3c(cc21)OC(F)(F)O3` [drawing 100], the pest or weed control at 50 ppm with Phytophthora infestans was 99%. Take `Cc1noc(C)c1S(=O)(=O)n1c(Br)nc2cc(Cl)c(Cl)cc21`: the pest or weed control at 50 ppm in the data set with Phytophthora infestans came out at 95%.
